We go through one compound from paper PMC10385834, “Curcumin Stereoisomer, Cis-Trans Curcumin, as a Novel Ligand to A1 and A3 Adenosine Receptors” (Pharmaceuticals, 2023).

For test [1], the target named is T1, A3AR (A3 adenosine receptor) (Homo sapiens, UniProt P0DMS8).
T1 construct: gene ADORA3
T1 sequence (P0DMS8 1-318): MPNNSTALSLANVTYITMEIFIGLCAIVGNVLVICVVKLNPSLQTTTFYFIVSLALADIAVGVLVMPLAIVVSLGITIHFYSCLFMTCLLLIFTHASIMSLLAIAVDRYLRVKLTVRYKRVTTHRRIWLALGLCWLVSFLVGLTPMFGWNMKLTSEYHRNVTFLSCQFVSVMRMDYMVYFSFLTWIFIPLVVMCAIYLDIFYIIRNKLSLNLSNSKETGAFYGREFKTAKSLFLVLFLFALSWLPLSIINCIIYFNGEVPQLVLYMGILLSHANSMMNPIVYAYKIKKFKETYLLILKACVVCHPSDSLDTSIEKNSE
As to the kind of experiment: competition with fluorescent ligand CA200623 on transfected CHO-K1 cells; confirmed by confocal microscopy. The test is classed as cell-based.

Test [2] concerns the target T2, A1AR (A1 adenosine receptor) (Homo sapiens, UniProt P30542).
T2 construct: gene ADORA1
T2 sequence (P30542 1-326): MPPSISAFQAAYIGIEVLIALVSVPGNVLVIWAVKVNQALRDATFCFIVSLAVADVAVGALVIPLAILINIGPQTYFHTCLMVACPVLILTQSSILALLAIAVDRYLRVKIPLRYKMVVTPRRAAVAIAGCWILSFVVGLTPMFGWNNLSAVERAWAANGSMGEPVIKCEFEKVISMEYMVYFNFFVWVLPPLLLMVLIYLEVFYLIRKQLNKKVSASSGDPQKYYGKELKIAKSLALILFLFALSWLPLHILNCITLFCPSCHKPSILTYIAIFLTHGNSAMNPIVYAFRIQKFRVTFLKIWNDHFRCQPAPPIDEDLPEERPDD
The description is as above. In kind it is cell-based.

As usually defined, the Ki is a dissociation constant, usually derived from enzyme kinetics or from competition with a known ligand. Regarding `COc1cc(/C=C\C(=O)CC(=O)/C=C/c2ccc(O)c(OC)c2)ccc1O` [CTCUR, cis-trans curcumin], the inhibition constant (Ki) was found to be 400 nM in test [1] and 306 nM in test [2].
